From patent publication US20020090341A1, “Method” (NYCOMED IMAGING AS, priority 1997, published 2002)

Test system: normal and reperfused infarcted myocardium
Experiment: inversion recovery echo planar imaging T1 measurement after coronary occlusion 60 min and reperfusion 120 min
Description: Sprague-Dawley rats (female, 270-320 g, n=24) were subjected to occlusion of the anterior branch of the left main coronary artery for 60 minutes, followed by reperfusion for 120 minutes before injecting the test agent. A catheter was placed in the tail vein for administration of contrast media. Animals were connected to an ECG patient monitor and placed in the magnet such that the heart of each rat was at or near ioscenter. Magnetic field was optimized for a central slab of 6 mm thickness, within which the 2 mm section to be imaged was located. Inversion and slice select pulses were calibrated. Inversion recovery echo planar imaging was then used to measure baseline T1 values for myocardium and left ventricle chamber blood.
MnDPDP was then administered at doses of 25, 50 and 100 μmole/kg by intravenous injection of 2.5, 5 and 10 ml/kg, respectively, of the test solution which contained a 10 mM solution of MnDPDP. These injections were followed by a flush of physiologic saline solution (0.9%) such that the combined volumes of test agent and saline flush was 11 ml/kg. All injected solutions were warmed before being administered and were injected slowly over 1.5 mins. T1 values were remeasured at 5 minute intervals during the first 60 minutes after injection. Occasional animals were imaged at 90 minutes for T1 determination (EPI) and for visual inspection of contrast on STIR (short TI inversion recovery) prepared spin echo images.
After imaging was completed, animals were sacrificed by an overdose of pentobarbital and the heart was excised, sectioned and stained in triphenyltetrazolium chloride solution to define the infarcted region.

[1] = 25 μmol/kg, 5 min after injection
[2] = 25 μmol/kg, 10 min after injection
[3] = 25 μmol/kg, 15 min after injection
[4] = 25 μmol/kg, 20 min after injection
[5] = 25 μmol/kg, 25 min after injection
[6] = 25 μmol/kg, 30 min after injection
[7] = 25 μmol/kg, 35 min after injection
[8] = 25 μmol/kg, 40 min after injection
[9] = 25 μmol/kg, 45 min after injection
[10] = 25 μmol/kg, 50 min after injection
[11] = 25 μmol/kg, 55 min after injection
[12] = 25 μmol/kg, 60 min after injection
[13] = 50 μmol/kg, 5 min after injection
[14] = 50 μmol/kg, 10 min after injection
[15] = 50 μmol/kg, 15 min after injection
[16] = 50 μmol/kg, 20 min after injection
[17] = 50 μmol/kg, 25 min after injection
[18] = 50 μmol/kg, 30 min after injection
[19] = 50 μmol/kg, 35 min after injection
[20] = 50 μmol/kg, 40 min after injection
[21] = 50 μmol/kg, 45 min after injection
[22] = 50 μmol/kg, 50 min after injection
[23] = 50 μmol/kg, 55 min after injection
[24] = 50 μmol/kg, 60 min after injection
[25] = 100 μmol/kg, 5 min after injection
[26] = 100 μmol/kg, 10 min after injection
[27] = 100 μmol/kg, 15 min after injection
[28] = 100 μmol/kg, 20 min after injection
[29] = 100 μmol/kg, 25 min after injection
[30] = 100 μmol/kg, 30 min after injection
[31] = 100 μmol/kg, 35 min after injection
[32] = 100 μmol/kg, 40 min after injection
[33] = 100 μmol/kg, 45 min after injection
[34] = 100 μmol/kg, 50 min after injection
[35] = 100 μmol/kg, 55 min after injection
[36] = 100 μmol/kg, 60 min after injection

Compound: Cc1ncc(COP(=O)(O)O)c(CN(CCN(CC(=O)[O-])Cc2c(COP(=O)(O)O)cnc(C)c2O)CC(=O)[O-])c1O.[Mn+2] [MnDPDP, manganese (II) chelate of N,N′-bis-(pyridoxal-5-phosphate)-ethylenediamine-N,N′-diacetic acid]
- T1 Blood [1]: 1.04 ± 0.02 s
- T1 Infarct [1]: 0.76 ± 0.02 s
- T1 normal [1]: 0.77 ± 0.01 s
- T1 Blood [2]: 1.11 ± 0.02 s
- T1 Infarct [2]: 0.82 ± 0.02 s
- T1 normal [2]: 0.76 ± 0.01 s
- T1 Blood [3]: 1.14 ± 0.02 s
- T1 Infarct [3]: 0.86 ± 0.03 s
- T1 normal [3]: 0.75 ± 0.01 s
- T1 Blood [4]: 1.16 ± 0.02 s
- T1 Infarct [4]: 0.90 ± 0.03 s
- T1 normal [4]: 0.73 ± 0.01 s
- T1 Blood [5]: 1.18 ± 0.02 s
- T1 Infarct [5]: 0.92 ± 0.03 s
- T1 normal [5]: 0.72 ± 0.01 s
- T1 Blood [6]: 1.18 ± 0.02 s
- T1 Infarct [6]: 0.93 ± 0.03 s
- T1 normal [6]: 0.70 ± 0.01 s
- T1 Blood [7]: 1.19 ± 0.02 s
- T1 Infarct [7]: 0.95 ± 0.03 s
- T1 normal [7]: 0.70 ± 0.01 s
- T1 Blood [8]: 1.20 ± 0.02 s
- T1 Infarct [8]: 0.98 ± 0.03 s
- T1 normal [8]: 0.69 ± 0.01 s
- T1 Blood [9]: 1.21 ± 0.02 s
- T1 Infarct [9]: 0.99 ± 0.03 s
- T1 normal [9]: 0.68 ± 0.01 s
- T1 Blood [10]: 1.22 ± 0.02 s
- T1 Infarct [10]: 1.00 ± 0.03 s
- T1 normal [10]: 0.67 ± 0.01 s
- T1 Blood [11]: 1.22 ± 0.02 s
- T1 Infarct [11]: 1.01 ± 0.03 s
- T1 normal [11]: 0.67 ± 0.01 s
- T1 Blood [12]: 1.23 ± 0.02 s
- T1 Infarct [12]: 1.02 ± 0.03 s
- T1 normal [12]: 0.65 ± 0.01 s
- T1 Blood [13]: 0.84 ± 0.02 s
- T1 Infarct [13]: 0.59 ± 0.01 s
- T1 normal [13]: 0.69 ± 0.01 s
- T1 Blood [14]: 0.93 ± 0.03 s
- T1 Infarct [14]: 0.65 ± 0.01 s
- T1 normal [14]: 0.68 ± 0.01 s
- T1 Blood [15]: 0.97 ± 0.02 s
- T1 Infarct [15]: 0.69 ± 0.01 s
- T1 normal [15]: 0.67 ± 0.01 s
- T1 Blood [16]: 1.00 ± 0.02 s
- T1 Infarct [16]: 0.73 ± 0.01 s
- T1 normal [16]: 0.67 ± 0.01 s
- T1 Blood [17]: 1.02 ± 0.03 s
- T1 Infarct [17]: 0.76 ± 0.02 s
- T1 normal [17]: 0.64 ± 0.01 s
- T1 Blood [18]: 1.04 ± 0.03 s
- T1 Infarct [18]: 0.80 ± 0.01 s
- T1 normal [18]: 0.63 ± 0.01 s
- T1 Blood [19]: 1.05 ± 0.03 s
- T1 Infarct [19]: 0.82 ± 0.02 s
- T1 normal [19]: 0.62 ± 0.01 s
- T1 Blood [20]: 1.06 ± 0.03 s
- T1 Infarct [20]: 0.85 ± 0.03 s
- T1 normal [20]: 0.60 ± 0.01 s
- T1 Blood [21]: 1.08 ± 0.03 s
- T1 Infarct [21]: 0.87 ± 0.02 s
- T1 normal [21]: 0.60 ± 0.01 s
- T1 Blood [22]: 1.08 ± 0.03 s
- T1 Infarct [22]: 0.88 ± 0.02 s
- T1 normal [22]: 0.59 ± 0.01 s
- T1 Blood [23]: 1.08 ± 0.03 s
- T1 Infarct [23]: 0.89 ± 0.03 s
- T1 normal [23]: 0.58 ± 0.01 s
- T1 Blood [24]: 1.10 ± 0.03 s
- T1 Infarct [24]: 0.91 ± 0.03 s
- T1 normal [24]: 0.58 ± 0.01 s
- T1 Blood [25]: 0.63 ± 0.03 s
- T1 Infarct [25]: 0.46 ± 0.02 s
- T1 normal [25]: 0.59 ± 0.01 s
- T1 Blood [26]: 0.74 ± 0.03 s
- T1 Infarct [26]: 0.47 ± 0.02 s
- T1 normal [26]: 0.59 ± 0.01 s
- T1 Blood [27]: 0.80 ± 0.02 s
- T1 Infarct [27]: 0.51 ± 0.02 s
- T1 normal [27]: 0.58 ± 0.01 s
- T1 Blood [28]: 0.83 ± 0.02 s
- T1 Infarct [28]: 0.55 ± 0.03 s
- T1 normal [28]: 0.57 ± 0.01 s
- T1 Blood [29]: 0.87 ± 0.02 s
- T1 Infarct [29]: 0.58 ± 0.03 s
- T1 normal [29]: 0.57 ± 0.01 s
- T1 Blood [30]: 0.89 ± 0.02 s
- T1 Infarct [30]: 0.60 ± 0.03 s
- T1 normal [30]: 0.55 ± 0.01 s
- T1 Blood [31]: 0.91 ± 0.03 s
- T1 Infarct [31]: 0.61 ± 0.03 s
- T1 normal [31]: 0.54 ± 0.01 s
- T1 Blood [32]: 0.92 ± 0.03 s
- T1 Infarct [32]: 0.63 ± 0.03 s
- T1 normal [32]: 0.54 ± 0.01 s
- T1 Blood [33]: 0.93 ± 0.03 s
- T1 Infarct [33]: 0.65 ± 0.03 s
- T1 normal [33]: 0.53 ± 0.01 s
- T1 Blood [34]: 0.94 ± 0.03 s
- T1 Infarct [34]: 0.66 ± 0.03 s
- T1 normal [34]: 0.53 ± 0.01 s
- T1 Blood [35]: 0.97 ± 0.02 s
- T1 Infarct [35]: 0.69 ± 0.03 s
- T1 normal [35]: 0.52 ± 0.01 s
- T1 Blood [36]: 0.97 ± 0.03 s
- T1 Infarct [36]: 0.69 ± 0.03 s
- T1 normal [36]: 0.52 ± 0.01 s
- slow E2 component (blood pool clearance): ~0.01 per min
- E1, bi-exponential fit of ΔR1 clearance (dose 25, ROI blood): 0.21 min⁻¹
- E2, bi-exponential fit of ΔR1 clearance (dose 25, ROI blood): 0.011 ± 0.001 min⁻¹
- E1, bi-exponential fit of ΔR1 clearance (dose 25, ROI infarct): 0.15 min⁻¹
- E2, bi-exponential fit of ΔR1 clearance (dose 25, ROI infarct): 0.015 ± 0.001 min⁻¹
- intercept, linear fit - increase in normal myocardium (dose 25, ROI normal): 0.187
- slope, linear fit - increase in normal myocardium (dose 25, ROI normal): 0.0043 min⁻¹
- E1, bi-exponential fit of ΔR1 clearance (dose 50, ROI blood): 0.15 min⁻¹
- E2, bi-exponential fit of ΔR1 clearance (dose 50, ROI blood): 0.009 ± 0.001 min⁻¹
- E1, bi-exponential fit of ΔR1 clearance (dose 50, ROI infarct): 0.058 min⁻¹
- E2, bi-exponential fit of ΔR1 clearance (dose 50, ROI infarct): 0.005 ± 0.003 min⁻¹
- intercept, linear fit - increase in normal myocardium (dose 50, ROI normal): 0.294
- slope, linear fit - increase in normal myocardium (dose 50, ROI normal): 0.0056 min⁻¹
- E1, bi-exponential fit of ΔR1 clearance (dose 100, ROI blood): 0.18 min⁻¹
- E2, bi-exponential fit of ΔR1 clearance (dose 100, ROI blood): 0.011 ± 0.001 min⁻¹
- E1, bi-exponential fit of ΔR1 clearance (dose 100, ROI infarct): 0.11 min⁻¹
- E2, bi-exponential fit of ΔR1 clearance (dose 100, ROI infarct): 0.010 ± 0.003 min⁻¹
- intercept, linear fit - increase in normal myocardium (dose 100, ROI normal): 0.523
- slope, linear fit - increase in normal myocardium (dose 100, ROI normal): 0.0050 min⁻¹
- plasma half life (equivalent to E2 component): ~1.17 h
- clearance or accumulation of test agent (over 60 minutes after injection, 25, 50 and 100 μmole/kg): cleared from both blood and infarcted myocardium but accumulated in uninfarcted myocardium
